Consider 11 compounds from patent publication US4719231A, “3-[N-(mercaptoacyl)]amino-4-arylbutanoic acid derivatives and an analgesic agent comprising the same” (Zaidan Hojin Biseibutsu Kagaku Kenkyu Kai, priority 1984, dated 1988).

The term IC50 denotes the concentration that inhibits the measured activity by half. Low values mean greater potency, high ones weaker potency.

Experiment [1] concerns the target T1, enkephalinase (Rattus norvegicus, UniProt P07861).
T1 construct: A preparation of enkephalinase was made by homogenizing corpus striatum of rat brain and by partial purification of the brain homogenate; from tissue; host or cells: rat brain corpus striatum, homogenized and partially purified
T1 sequence (P07861 1-750): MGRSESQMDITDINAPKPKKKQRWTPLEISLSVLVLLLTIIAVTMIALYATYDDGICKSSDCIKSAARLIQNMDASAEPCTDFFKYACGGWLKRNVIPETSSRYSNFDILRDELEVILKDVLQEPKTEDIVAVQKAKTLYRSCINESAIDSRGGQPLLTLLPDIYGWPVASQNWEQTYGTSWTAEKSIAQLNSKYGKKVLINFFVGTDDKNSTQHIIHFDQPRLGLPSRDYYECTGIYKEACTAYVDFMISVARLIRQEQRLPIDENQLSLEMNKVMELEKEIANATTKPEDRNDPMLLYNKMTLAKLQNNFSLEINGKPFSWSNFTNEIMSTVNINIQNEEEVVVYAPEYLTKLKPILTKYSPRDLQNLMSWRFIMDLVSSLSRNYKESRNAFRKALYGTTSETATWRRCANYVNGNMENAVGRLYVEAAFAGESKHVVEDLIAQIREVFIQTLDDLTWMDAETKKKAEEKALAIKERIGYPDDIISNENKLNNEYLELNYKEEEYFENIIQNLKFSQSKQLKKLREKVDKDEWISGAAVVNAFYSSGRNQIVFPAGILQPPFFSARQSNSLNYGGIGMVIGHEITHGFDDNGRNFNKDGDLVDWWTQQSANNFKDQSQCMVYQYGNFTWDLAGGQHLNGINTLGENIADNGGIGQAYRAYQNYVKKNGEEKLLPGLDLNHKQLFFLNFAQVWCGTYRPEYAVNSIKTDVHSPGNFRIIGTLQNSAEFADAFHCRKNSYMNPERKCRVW
Put plainly: Inhibitory activity against enkephalinase. It is filed as biochemical. The note with it: enkephalinase from corpus striatum of rat brain; substrate methionine-enkephaline; pH 7.7; 1 hour at 37° C. Here is the method: Inhibitory activity against enkephalinase
A preparation of enkephalinase was made by homogenizing corpus striatum of rat brain and by partial purification of the brain homogenate according to the method of Gorenstein et al (see: the "Life Science" vol. 25, 2065~2070 (1979)).
A test compound as identified in Table 1 below was dissolved in a mixture of Tris-hydrochloride buffered solution (pH 7.7) and an aqueous 1% Triton×100 (an active surfactant) to such a concentration that the added quantity of the test compound amounted to one-tenth of the volume of said mixture. To the solution of the test compound so prepared was added the enkephalinase, followed by incubation for 5 minutes at ambient temperature and the resulting mixture was admixed with methionine-enkephaline as the substrate. The reaction mixture so prepared was incubated for 1 hour at 37° C. and then subjected to a high-performance liquid chromatography in such a manner that the Tyr-Gly-Gly (a fragment of the methionine-enkephaline) formed by the enzymatic degradation of the methionine-enkephaline was isolated and the quantity of Tyr-Gly-Gly was determined by an electro-chemical detector. In this way, IC50 value of the test compound, namely, the dose of the test compound required for 50% inhibition of the enkephalinase was measured.

Experiment [2] in a line: Effect of enhancing the analgesia by DAME, tail-flick latency method. The class given is in vivo, rat. The note with it: rats; for Enhancement in the analgesia by DAME: DAME 10 μg + test compound 30 μg relative to DAME 10 μg; for M.P.E. DAME 10 μg + Test Compound 30 μg: n = 3 - 4, **P < 0.01; for M.P.E. Test compound 30 μg: test compound 30 μg alone, n = 3 - 4. Here is the method: Effect of enhancing the analgesia by [D-ala^2,met^5 ]enkephaline (abbreviated as DAME)
A known analgesic compound, DAME and the particular compound under test of this invention were administered into the brain of the test rats by puncture of cerebroventride.
Thus, the test compound was administered into the brain of the rats using a metal cannula of 400 μm in external diameter which had been inserted into the ventriculus lateralis cerebri in a brain region of 3.2 mm anterior from the bregma, 0 mm from the central line and 0.7 mm in depth, of the brain. [see "L. J. Pellegrino and A. J. Cushman; A Stereotaxic Atras of the Rat Brain. Appleton-Century-Crofts, Division of Meredith Publishing Co., New York, (1967)"]. The test for the estimation was commenced at such a time after 48 hours or more later than the end of the surgical operation when the test rats were deemed as having recovered from the damages induced by the surgical operation. Analgesia tests were conducted using the rats having been closely restrained in a wire mesh cage, according to the tail-flick latency method (see: Hachisu et al., Life Sciences, 30, 1739-1746 (1982)). Analgesic activity was evaluated in term of the value of percentage of increase in the tail-flick latency time of the test rats receiving the test compound, as compared with the control rats receiving no test compound. The power of the radiant heat source was adjusted to give a tail-flick latency value (as the control value) of about 2 seconds for the rats before the administration of the test compound.
The cut-off of 7 seconds was used in order to prevent the tail tissues from being damaged by the heat. The maximal percent effect (M.P.E) of the tail-flick latency test was calculated according to the following equation: [formula]
Background: Hot-plate and tail-flick tests time the reaction to a heat stimulus.

The nature of experiment [3]: Analgesic activity by the acetic acid-writhing method. The class given is in vivo, mouse (ddy-strain). As to conditions: mice, *P < 0.05, **P < 0.01. Here is the method: Analgesic activity of test compound as estimated according to the acetic acid-writhing method
Mice of ddy-strain (body weight 20 to 25 grams) were employed as the test animal. A suspension of the compound under test was subcutaneously injected in such a manner that said suspension as injected into each mouse provides the dosage of 30 mg/kg or 300 mg/kg of the test compound. 30 Minutes after the administration, an aqueous solution of 0.6% of acetic acid was injected intraperitoneally into the mice at a volume of 0.1 ml per 10 g of the body weight. 5 Minutes after the injection of the aqueous acetic acid, the estimation was commenced to count the number of the writhing reaction of the treated mice (the motions such as abdominal constrictions and extensions of the treated mice as induced by the injection of acetic acid) which took place for the subsequent 15 minutes.
The rate (%) of suppression of the writhing reaction by the test compound was evaluated according to the following equation: [formula]

Setting [4] is: into the brain (cerebroventricle).

Several values for one entry are separate records, joined by “and”; a condition that tells them apart may be missing. Identical values can stand only once.

Compound `N[C@H](Cc1ccccc1)[C@H](O)C(=O)O` [(2S,3R)-AHPA, 3-amino-2-hydroxy-4-phenylbutanoic acid, reference compound] displayed an IC50 in experiment [1] of 14000 µM.
In turn, `CC(=O)SCC(=O)N[C@H](Cc1ccccc1)[C@H](O)C(=O)O` [(2S,3R)-N--(AcSCH2 CO)--AHPA, (2S,3R)-3-[N-(acetylthioacetyl)]amino-2-hydroxy-4-phenylbutanoic acid] registered an IC50 in experiment [1] of 50 µM. Besides, the “Enhancement in the analgesia by DAME” value in experiment [2] was found to be 617.2. Also, in experiment [2] (setting [4]), the “M.P.E. DAME 10 μg + Test Compound 30 μg” value turned out to be 100 ± 0% and the “M.P.E. Test compound 30 μg” value was 13.1 ± 6.0%. For the same compound, in experiment [3] (30 mg/kg subcutaneous), the “Rate of suppression (%) (average value ± S.E.)” value (“Rate of suppression (%)” for short) stood at 33.7 ± 13.5%. Also, the “Rate of suppression (%)” value in experiment [3] (300 mg/kg subcutaneous) was found to be 33.3 ± 13.4%.
`CC(=O)SCC(=O)N[C@H](Cc1ccccc1)[C@H](O)C(=O)NCC(=O)O` [(2S,3R)-N--(AcSCH2 CO)--AHPA--Gly, N-{(2S,3R)-3-[N-(acetylthioacetyl)]amino-2-hydroxy-4-phenylbutanoyl}glycine] returned an IC50 in experiment [1] greater than 300 µM.
As to `CC(=O)SCC(=O)N[C@H](Cc1ccccc1)[C@H](O)C(=O)N[C@@H](CC(C)C)C(=O)O` [(2S,3R)-N--(AcSCH2CO)--AHPA--L-Leu, N-{(2S,3R)-3-[N-(acetylthioacetyl)]amino-2-hydroxy-4-phenylbutanoyl}-L-leucine], in experiment [1], the IC50 is greater than 300 µM.
`O=C(CCSC(=O)c1ccccc1)N[C@H](Cc1ccccc1)[C@H](O)C(=O)O` [(2S,3R)-N--(BzSCH2 CH2 CO)--AHPA, (2S,3R)-3-[N-(3-benzoylthiopropionyl)]amino-2-hydroxy-4-phenylbutanoic acid] registered an IC50 in experiment [1] greater than 300 µM.
In the case of `CC(SC(=O)c1ccccc1)C(=O)N[C@H](Cc1ccccc1)[C@H](O)C(=O)O` (stereo partly drawn) [(2S,3R)-N--(BzSCH(Me)CO)--AHPA, (2S,3R)-3-[N-(2-benzoylthiopropionyl)]amino-2-hydroxy-4-phenylbutanoic acid], the IC50 in experiment [1] was greater than 300 µM.
In the case of `O=C(CS)N[C@H](Cc1ccccc1)[C@H](O)C(=O)O` [(2S,3R)-N--(HSCH2 CO)--AHPA, (2S,3R)-3-[N-(mercaptoacetyl)]amino-2-hydroxy-4-phenylbutanoic acid], the IC50 in experiment [1] is 3 µM. In addition, the “Rate of suppression (%)” value in experiment [3] (30 mg/kg subcutaneous) is listed as 12.5 ± 14.7%; in experiment [3] (300 mg/kg subcutaneous) it was 36.5 ± 10.5%.
Consider `N[C@@H](CS)C(=O)N[C@H](Cc1ccccc1)[C@H](O)C(=O)O` [(2S,3R)-N--(L-Cys)--AHPA, (2S,3R)-3-(N-L-Cysteinyl)amino-2-hydroxy-4-phenylbutanoic acid], for which it took 40 µM to reach half-maximal inhibition in experiment [1] (IC50). For the same compound, in experiment [2], the “Enhancement in the analgesia by DAME” value is reported as 604.2. Moreover, the “M.P.E. DAME 10 μg + Test Compound 30 μg” value in experiment [2] (setting [4]) is recorded as 87.0 ± 13.0%. For the same compound, the “M.P.E. Test compound 30 μg” value in experiment [2] (setting [4]) is listed as 10.0 ± 5.2%. Moreover, the “Rate of suppression (%)” value in experiment [3] (30 mg/kg subcutaneous) came out at 56.5 ± 9.9%; in experiment [3] (300 mg/kg subcutaneous), 47.9 ± 11.9%.
Turning to `CC(=O)SCC(=O)N[C@@H](Cc1ccccc1)[C@H](O)C(=O)O` [(2S,3S)-N--(AcSCH2 CO)--AHPA, (2S,3S)-3-[N-(acetylthioacetyl)]amino-2-hydroxy-4-phenylbutanoic acid], 300 µM corresponded to half-maximal inhibition in experiment [1] (IC50).
`O=C(CS)N[C@@H](Cc1ccccc1)[C@H](O)C(=O)O` [(2S,3S)-N--(HSCH2 CO)--AHPA, (2S,3S)-3-[N-(mercaptoacetyl)]amino-2-hydroxy-4-phenylbutanoic acid] registered an IC50 in experiment [1] of 20 µM.
With “[D-ala^2,met^5 ]enkephaline [DAME, reference compound]”, the “M.P.E. DAME 10 μg” value in experiment [2] (DAME 10 μg alone, into the brain (cerebroventricle), n = 3 - 4, *P < 0.05) was 16.2 ± 3.9% and 14.4 ± 4.2%.
